According to patent US9254293B2, “Methods and compositions for inhibiting or reducing hair loss, acne, rosacea, prostate cancer, and BPH” (The Trustees of the University of Pennsylvania, priority 2006, dated 2016):
“Also recorded” adds a separate entry of the source.

System: wild-type c57/black mice
Experiment: Topical application of PGD2 to the shaved central back of mice, effect on hair growth
Type: in vivo
Procedure: 25 day-old (corresponding to end of the first telogen stage) wild-type c57/black mice were treated with 200 ng of PGD2 (Cayman Chemicals) diluted in 200 μl of acetone applied to the central back after shaving. Subsequent treatments were performed every 3 days, ending on day 40 For a total of […]. Photographs were taken on day 46 of life, after the end of the 2nd anagen. In the second experiment, mice were shaved and treated with 10 μg of PGD2 dissolved in 200 μl of acetone on days 66 and 69 of life, and then photographed on day #121.

Structure (SMILES): CCCCC[C@H](O)/C=C/[C@H]1C(=O)C[C@H](O)[C@@H]1C/C=C\CCCC(=O)O [PGD2, prostaglandin D2]
- effect of PGD2 on hair growth (alopecia) (25 day-old mice, 200 ng PGD2 in 200 μl acetone on central back after shaving, every 3 days to day 40 (5 applications), photographed day 46 after end of 2nd anagen): baldness (alopecia); also recorded: induced alopecia
- effect of PGD2 on hair regrowth (mice shaved, 10 μg PGD2 in 200 μl acetone on days 66 and 69 of life, photographed day 121, over 50 days after the last application): prevent hair regrowth
